Laboratory results taken from PubChem BioAssay (NCI).
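Interpolation was linear, between the two tested concentrations surrounding the appropriate level; five concentrations were tested over 48 hours in 96-well plates. GI50 = concentration required for 50% inhibition of growth. TGI marks complete inhibition of growth.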

Key:
Assay in all cases: NCI tumour cell line growth inhibition, 48 h
HCT-15 colon = test system: HCT-15 colon
HL-60(TB) leukemia = test system: HL-60(TB) leukemia
HOP-62 NSCLC = test system: HOP-62 NSCLC
HS 578T breast = test system: HS 578T breast
NCI-H226 lung = test system: NCI-H226 lung
NCI/ADR-RES ovarian = test system: NCI/ADR-RES ovarian
SK-OV-3 ovarian = test system: SK-OV-3 ovarian
TK-10 renal = test system: TK-10 renal
CAKI-1 renal = test system: CAKI-1 renal
RXF 393 renal = test system: RXF 393 renal

| Structure (SMILES) | TGI (HCT-15 colon) [µM] | TGI (HL-60(TB) leukemia) [µM] | TGI (HOP-62 NSCLC) [µM] | TGI (HS 578T breast) [µM] | TGI (NCI-H226 lung) [µM] | TGI (NCI/ADR-RES ovarian) [µM] | TGI (SK-OV-3 ovarian) [µM] | TGI (TK-10 renal) [µM] | TGI (CAKI-1 renal) [µM] | TGI (RXF 393 renal) [µM] | GI50 (CAKI-1 renal) [µM] | GI50 (HS 578T breast) [µM] | GI50 (RXF 393 renal) [µM] | GI50 (SK-OV-3 ovarian) [µM] | GI50 (TK-10 renal) [µM] |
| --- | --- | --- | --- | --- | --- | --- | --- | --- | --- | --- | --- | --- | --- | --- | --- |
| CSC1=N/C(=C\c2cccs2)C(=O)N1CN1CCOCC1 | > 100 | > 100 | > 100 | > 100 | > 100 | 90.5 | > 100 | > 100 |  |  |  |  |  |  |  |
| COc1cc(Cn2c3c(c4c(CN(C)C)c(O)ccc42)C(=O)c2ccccc2C3=O)cc(OC)c1 | 28.2 | > 100 | 30.9 | 43.9 | > 100 | 34.8 | 48.3 | 74.2 | 30.4 |  |  |  |  |  |  |
| CC(=O)OCC1C(C(C)OC(C)=O)CCC2C1CCC1(C)C(OC(C)=O)CCC21 (stereo not given) | 36.5 | 52.6 | 38.5 |  | 33.6 | 44.9 |  | > 100 | > 100 |  |  |  |  |  |  |
| Cc1ccc2nc3c(C(=O)NCCN(C)C)cccc3cc2c1 | 4.91 | 3.72 | 7.05 |  | 3.6 | 4.25 | 6.66 |  |  | 7.02 |  |  |  |  |  |
| C#CCNC(=O)CCC(N)C(=O)O (stereo not given) | > 100 | > 100 | > 100 |  | > 100 | > 100 | > 100 |  | > 100 | > 100 |  |  |  |  |  |
| O=[N+]([O-])c1cc2n[nH]nc2c2nonc12 | > 100 | 61.3 | > 100 | 58.8 | 40.9 | > 100 | > 100 | > 100 | 77.7 |  |  |  |  |  |  |
| COC1/C=C\C=C(/C)C(=O)NC2=CC(=O)C=C(C2=O)C(OC)C(C)CC(OC)C(OC)C(C)/C=C(/C)C1OC(N)=O (stereo not given) | 15.4 | 0.554 | 8.05 |  | 37 | 21.8 | 27.8 |  | 26.3 |  |  |  |  |  |  |
| Nc1[nH]c(=O)nc2sc3c(c12)CCCC3 | > 100 | > 100 | > 100 | 71.9 | 88.8 | > 100 | > 100 | > 100 |  | > 100 |  |  |  |  |  |
| CCN(CC)CCNc1ccc([N+](=O)[O-])c2nc3ccccc3c(N)c12 | 1.75 | 2.11 | > 10 | 1.83 | 5.62 | 1.94 |  | > 10 | > 10 | 1.52 |  |  |  |  |  |
| CC1=NN(c2nc(N)nc(CS(C)(=O)=O)n2)C(C)(C)C1 | > 100 | > 100 | > 100 | > 100 |  | > 100 | > 100 | > 100 | > 100 | > 100 |  |  |  |  |  |
| O=C1CCc2c3c(c4c([nH]c5ccccc54)c2CC1)C(=O)NC3=O | > 100 | 17.2 | > 100 | > 100 | 23.7 | > 100 |  | 39.6 | 21.2 | 32.2 |  |  |  |  |  |
| O=C1CCCCC/C=C2/CC[C@H](Sc3ccccc3)[C@@H]12 | > 100 | > 100 | > 100 |  | > 100 |  | > 100 | > 100 |  | > 100 |  |  |  |  |  |
| Cn1c(-c2ccccc2)cc(-c2ccc3c(c2)OCO3)c1-c1cccs1 | > 100 | > 100 | > 100 | > 100 | > 100 | > 100 | > 100 | > 100 |  | > 100 |  |  |  |  |  |
| COc1ccc2nc(-c3ccc(OC(=O)N(C)C)cc3)cn2c1 |  | > 100 | > 100 | > 100 | > 100 | > 100 | > 100 | > 100 | > 100 |  |  |  |  |  |  |
| CSc1ccc2c(c1)c(CCN)c(C)n2Cc1ccc(Cl)c(Cl)c1 |  |  |  | 4.8 |  |  | 3.09 | 2.95 | 3.85 | 3.12 | 1.82 | 2.05 | 1.66 | 1.69 | 1.51 |
| NCCCNCCSSCc1ccccc1CSSCCNCCCN | > 100 | 29.8 | > 100 |  |  |  | > 100 | > 100 | > 100 | > 100 |  |  |  |  |  |
| O=C(O)CC(NC(=O)C(F)(F)F)C(=O)NC1Cc2ccccc2OC1=O (stereo not given) | > 100 |  | > 100 | > 100 | > 100 | > 100 | > 100 | > 100 | > 100 | > 100 |  |  |  |  |  |
| Cc1csc2c(P(=O)(OC(C)C)OC(C)C)c(-c3ccccc3)cn12 | 31.6 | 45.9 | 33.1 | 39.7 |  | 36.2 | 33 | 23.7 | 43.4 | 33.7 |  |  |  |  |  |
| CSCCC(NC(=O)C(Cc1ccccc1)NC(=O)CNC(=O)CNC(=O)C(N)Cc1ccc(O)cc1)C(=O)O (stereo not given) | > 100 | > 100 | > 100 |  |  | > 100 | > 100 |  | > 100 | > 100 |  |  |  |  |  |
| CC(=O)OC1C=CC2CCN3C(=O)c4cc5c(cc4[C@H]1C23)OCO5 (stereo not given in full) | > 100 | > 100 | > 100 |  | > 100 |  | > 100 | > 100 |  | > 100 |  |  |  |  |  |
| CCOC(=O)C(SCCO)C(C(=O)OCC)n1ccc(N)nc1=O (stereo not given) | > 100 | > 100 | > 100 | > 100 | > 100 | > 100 | > 100 | > 100 | > 100 |  |  |  |  |  |  |
| COCCO | > 100 | > 100 | > 100 |  | > 100 | > 100 | > 100 |  | > 100 | > 100 |  |  |  |  |  |
| COc1cc(N=C(N)N=C(N)N)c2ncccc2c1 | > 100 |  | > 100 | > 100 | 62.7 | > 100 | > 100 | > 100 | > 100 | > 100 |  |  |  |  |  |
| O=C(N=Nc1ccc([N+](=O)[O-])cc1)NNc1ccc([N+](=O)[O-])cc1 | 62.8 | 46.9 | 34 |  | 51 |  |  | 53.6 | > 100 |  |  |  |  |  |  |
| COC(=O)C12CCC(C(=O)OC)(Cc3c(c4ccccc4n3S(=O)(=O)c3ccccc3)C1)C2=O (stereo not given) | > 100 |  | > 100 | > 84.7 | > 100 | > 100 | > 100 | > 100 | > 100 | 24.1 |  |  |  |  |  |
